Our source for the KM values is PMC3016878 (Chembiochem : a European journal of chemical biology, 2010).

The target of this experiment is AAC(3)-IV; AAC(3) (Escherichia coli, UniProt Q306W4). Put plainly: UV-vis acetyltransferase assay, Michaelis-Menten. The format is biochemical. The settings on record: co-substrate apramycin.

Consider `CC(=O)SCCNC(=O)CCNC(=O)[C@H](O)C(C)(C)COP(=O)(O)OP(=O)(O)OC[C@H]1O[C@@H](n2cnc3c(N)ncnc32)[C@H](O)[C@@H]1OP(=O)(O)O` [AcCoA], for which the KM entry is “Michaelis-Menten plot for modification of apramycin by AcCoA and AzAcCoA”.
